Where two headings read alike, the source gives them in different places.
Columns and labels:
[1] = isethionate salt, cited from earlier work
[2] = test system: scopolamine-induced deficit in rats; assay: Light-dark box memory test in rats, scopolamine-induced deficit, single dose pre-training (Tables 3 and 4); format: in vivo, Male Wistar rats; conditions: for Mean latency Day 1 / Mean latency Day 2: ± SEM; for Effect on expected decrease in latency on retest: scopolamine 0.1 mg/kg
Experimental: (§1) Male Wistar rats obtained from Charles River were used. They were housed under controlled conditions (temperature 21±2 deg. C., humidity approx. 50%, 12 hour light/dark cycle, food and water ad lib) for one week before use. On the day before test the rats were permanently housed in groups of six. Food and water were supplied ad lib. On the test day, animals were weighed and then dosed either 30 minutes before test (midazolam), one hour before test (compound A) or immediately after test.
(§2) All drugs were dissolved or suspended in 0.25% (w/v) aqueous celacol, and administered orally (by gavage), i.p. or s.c. The dose volume was 5 ml/kg for all routes.
(§3) An identical apparatus to that described in Example 1 was used, except that the smaller box measured 370 mm×260 mm×190 mm.
(§4) This consisted of training as described for mice under section (d) of Example 1.
(§5) Test drugs or control fluids were given before or immediately after the training session.
(§6) This was as described under section (e) of Example 1.

[3] = test system: scopolamine-induced deficit in mice; assay: Modified light-dark box memory test in mice, scopolamine-induced deficit, drug given pre-training (Table 1); format: in vivo, Male albino CD-1 mice; conditions: for Mean latency Day 1 / Mean latency Day 2: ± SEM
Experimental: (§7) Male albino CD-1 mice obtained from Charles River were used. They were housed under controlled conditions (temperature 21±2 deg. C., humidity approx. 50%, 12 hour light/dark cycle, food and water ad lib) for one week before use. On the day before test, the mice were housed in groups of six in polythene boxes in the laboratory and marked for identification. Food and water were supplied ad lib. On the test day, animals were weighed and then dosed either 30 minutes before test (piracetam, ondansetron) one hour before test (compound A) or immediately after test.
All drugs were dissolved or suspended in 0.25% (w/v) aqueous celacol, and administered orally (by gavage), i.p. or s.c. The dose volume was 10 ml/kg for all routes.
(§8) The apparatus consisted of two boxes with an opening 90 mm×60 mm at floor level between them. A plastic door was used to close the opening when required. The smaller box (290 mm×120 mm×120 mm high) was made of opaque plastics, open at the top to allow illumination by normal laboratory lighting. The larger box (305 mm square×280 mm high) was enclosed apart from the single opening.
(§9) This consisted of training, with retest 24 hours later. During training, animals were placed individually in the open box facing away from the end with the opening. After a period of exploration, they usually entered the dark box and the latency to entry in seconds was noted. The door to the dark box was closed, and after 30 seconds had elapsed, the animal was removed gently and returned to the holding box. Twenty-four hours later, an identical procedure was used, except that the session ended as soon as the animal had entered the dark box. The latency was again noted. During the interval, the animals were not handled, and were disturbed as little as possible. Each animal was used once only.
as §5
Group comparisons were made between latencies to enter the dark compartment on the first and second occasions. For both training and retest occasions, comparisons were made between vehicle and treatment groups. […] The difference between latencies on the two occasions is presented as % decrease on Day 2 compared with Day 1.
(§10) The mean latency to enter the dark box±standard error of the mean was calculated from a group of 12 animals. For a given treatment, figures in the columns labelled `Day 1` and `Day 2` show the mean latencies taken from the same group of animals. The difference between data obtained on the two days is illustrated by showing the % decrease, and the data compared using the Mann-Whitney U-test; NS indicates a p value>0.1.

scopolamine effect = conditions: cited from earlier work; for Reversal of the scopolamine effect: screen for nootropic compounds
[4] = test system: scopolamine-induced deficit in mice; assay: Modified light-dark box memory test in mice, scopolamine-induced deficit, drug given immediately post-training (Table 2); format: in vivo, Male albino CD-1 mice; conditions: for Mean latency Day 1 / Mean latency Day 2: ± SEM
Experimental: as §7
[…] The dose volume was 10 ml/kg for all routes.
as §8, §9, §5
Group comparisons were made between latencies to enter the dark compartment on the first and second occasions. For both training and retest occasions, comparisons were made between vehicle and treatment groups. The distribution of latencies was skewed on both learning and retest trials (data not shown), so the non-parametric Mann-Whitney U-test was used. The difference between latencies on the two occasions is presented as % decrease on Day 2 compared with Day 1.
as §10

[5] = test system: scopolamine-induced deficit in rats; assay: Light-dark box memory test in rats, sub-acute dosing: pre-training, pre-training and pre-retest, or four pre-treatments and before training and retest (Table 5); format: in vivo, Male Wistar rats
Experimental: as §1
In the sub-acute dosing regimen (see `Procedure`) the rats, housed as above, received six doses of drug or vehicle by the oral route, each 24 hours apart.
as §2, §3, §4
The procedure was identical with that described above, except that seven groups of rats received compound A or control pre-treatment as 6 oral doses each 24 hours apart, as follows.
Training took place 1 hour after the fifth dose i.e. on day 5. […] The usual retest was performed 24 hours later (on day 6), one hour after the sixth oral treatment.
as §6
The mean latency to enter the dark box±standard error of the mean was calculated from a group of 24 animals (controls in first block) or 12 animals (all other treatments). For a given treatment, figures in the columns labelled `Day 5` and `Day 6` show the mean latencies taken from the same group of animals. The difference between data obtained on the two days is illustrated by showing the % decrease, and the data compared using the Mann-Whitney U-test.

[6] = test system: scopolamine-induced pupillary dilatation in rats; assay: Pupil diameter measurement in rats (Table 6); format: in vivo, Male Wistar rats
Experimental: (§11) 15 minutes before observation. Under these conditions, which were identical to those used in the learning experiments described in Example 2, changes in salivation and pupil diameter were measured. Salivation was measured by placing a piece of folded filter paper in the rat's mouth and measuring the diameter of the blot in mm after 1 minute. Pupil diameter was measured using a magnifying glass and graticule under normal lighting conditions. For both measures, comparisons were made between control and drug-treated groups using a Student's T-test on independent samples.
(§12) Groups of 6 animals were used.

[7] = test system: scopolamine-induced dry mouth in rats; assay: Salivation measurement in rats (Table 6); format: in vivo, Male Wistar rats; conditions: scopolamine, vehicle-pretreated rats; p<0.01
Experimental: as §11, §12

[8] = saline s.c. + midazolam 0.5 mg/kg i.p.
[9] = scopolamine 0.1 mg/kg s.c. + midazolam 0.5 mg/kg i.p.
[10] = scopolamine 1 mg/kg s.c. + ondansetron 0.01 ug/kg i.p.
[11] = scopolamine 1 mg/kg s.c. + ondansetron 1.0 ug/kg i.p.
[12] = scopolamine 1 mg/kg s.c. + ondansetron 100 ug/kg i.p.
[13] = saline s.c. + piracetam 2000 mg/kg i.p.
[14] = scopolamine 1 mg/kg s.c. + piracetam 2000 mg/kg i.p.
[15] = saline s.c. + piracetam 2000 mg/kg i.p. post-training
[16] = scopolamine 1 mg/kg s.c. + piracetam 2000 mg/kg i.p. post-training
[17] = scopolamine 1 mg/kg s.c. + celacol
[18] = scopolamine 1 mg/kg s.c. + saline (piracetam experiment)
[19] = scopolamine 1 mg/kg s.c. + saline
[20] = scopolamine 0.1 mg/kg s.c. + celacol (Table 3)
[21] = scopolamine 0.1 mg/kg s.c. + saline (Table 4)
[22] = scopolamine 0.1 mg/kg s.c. + celacol days 1-6, ± SEM

Nc1nnc(-c2cccc(Cl)c2Cl)c(N)n1 [3,5-diamino-6-(2,3-dichlorophenyl)-1,2,4-triazine isethionate]
Solubility [1]: good solubility
Solubility ([1]; listed as The salt with isethionic acid): particularly good solubility

Cc1ncc2n1-c1ccc(Cl)cc1C(c1ccccc1F)=NC2 [Midazolam]
Reversal of scopolamine-induced deficit ([2]; midazolam 0.5 mg/kg i.p.): did not reverse the scopolamine-induced deficit
Difference between days, % Decrease ([2]; saline s.c. + midazolam 0.5 mg/kg i.p., p (0.09)): 29%
Mean latency Day 1 [2, 8]: 39.9 ± 4.9 s
Mean latency Day 2 [2, 8]: 28.2 ± 2.7 s
Difference between days, % Decrease ([2]; scopolamine 0.1 mg/kg s.c. + midazolam 0.5 mg/kg i.p., p NS): 9%
Mean latency Day 1 [2, 9]: 37.0 ± 4.0 s
Mean latency Day 2 [2, 9]: 33.6 ± 3.4 s

Cc1nccn1CC1CCc2c(c3ccccc3n2C)C1=O (stereo not shown) [Ondansetron, 1,2,3,9-tetrahydro-9-methyl-3-[(2-methyl-1H-imidazol-1-yl)methyl]-4H-carbazol-4-one]
Difference between days, % Decrease ([3]; scopolamine 1 mg/kg s.c. + ondansetron 0.01 ug/kg i.p., p NS): -28%
Mean latency Day 1 [3, 10]: 15.6 ± 1.8 s
Mean latency Day 2 [3, 10]: 20.0 ± 1.9 s
Difference between days, % Decrease ([3]; scopolamine 1 mg/kg s.c. + ondansetron 1.0 ug/kg i.p., p NS): -5%
Mean latency Day 1 [3, 11]: 14.3 ± 1.4 s
Mean latency Day 2 [3, 11]: 14.9 ± 1.2 s
Difference between days, % Decrease ([3]; scopolamine 1 mg/kg s.c. + ondansetron 100 ug/kg i.p., p <0.05): 28%
Mean latency Day 1 [3, 12]: 16.3 ± 1.9 s
Mean latency Day 2 [3, 12]: 11.8 ± 1.5 s
Reversal of the scopolamine effect (scopolamine effect): positive results

NC(=O)CN1CCCC1=O [Piracetam]
Day 2 latency versus scopolamine-treated control animals ([3]; piracetam 2000 mg/kg i.p. + scopolamine, pre-training, p<0.05): significantly different
Difference between days, % Decrease ([3]; saline s.c. + piracetam 2000 mg/kg i.p., p <0.01): 44%
Mean latency Day 1 [3, 13]: 21.4 ± 4.7 s
Mean latency Day 2 [3, 13]: 12.1 ± 1.2 s
Difference between days, % Decrease ([3]; scopolamine 1 mg/kg s.c. + piracetam 2000 mg/kg i.p., p NS*): 27%
Mean latency Day 1 [3, 14]: 19.1 ± 2.4 s
Mean latency Day 2 [3, 14]: 13.9 ± 1.8 s
Difference between days, % Decrease ([4]; saline s.c. + piracetam 2000 mg/kg i.p. post-training, p <0.05): 28%
Mean latency Day 1 [4, 15]: 18.8 ± 2.0 s
Mean latency Day 2 [4, 15]: 13.5 ± 1.7 s
Difference between days, % Decrease ([4]; scopolamine 1 mg/kg s.c. + piracetam 2000 mg/kg i.p. post-training, p NS*): 6%
Mean latency Day 1 [4, 16]: 19.2 ± 1.8 s
Mean latency Day 2 [4, 16]: 18.0 ± 1.8 s
Reversal of the scopolamine effect (scopolamine effect): positive results

CN1[C@@H]2C[C@@H](OC(=O)[C@H](CO)c3ccccc3)C[C@H]1[C@@H]1O[C@@H]12 [Scopolamine]
Difference between days, % Decrease ([3]; scopolamine 1 mg/kg s.c. + celacol, p NS): -10%
Mean latency Day 1 [3, 17]: 18.8 ± 1.8 s
Mean latency Day 2 [3, 17]: 20.7 ± 2.3 s
Difference between days, % Decrease ([3]; scopolamine 1 mg/kg s.c. + saline (ondansetron experiment), p NS): -2%
Mean latency Day 1 ([3]; scopolamine 1 mg/kg s.c. + saline (ondansetron experiment)): 16.5 ± 1.3 s
Difference between days, % Decrease ([3]; scopolamine 1 mg/kg s.c. + saline (piracetam experiment), p NS): -27%
Mean latency Day 1 [3, 18]: 18.9 ± 1.4 s
Mean latency Day 2 [3, 18]: 24.0 ± 2.5 s
Effect on expected decrease in latency on retest ([3]; scopolamine 1 mg/kg, vehicle-treated mice): abolished this effect
Difference between days, % Decrease ([4]; scopolamine 1 mg/kg s.c. + saline, p (0.07, up)): -36%
Mean latency Day 1 [4, 19]: 19.5 ± 2.3 s
Mean latency Day 2 [4, 19]: 26.5 ± 2.7 s
Difference between days, % Decrease ([2]; scopolamine 0.1 mg/kg s.c. + celacol (Table 3), p NS): 0%
Mean latency Day 1 [2, 20]: 44.4 ± 4.3 s
Mean latency Day 2 [2, 20]: 44.5 ± 3.7 s
Difference between days, % Decrease ([2]; scopolamine 0.1 mg/kg s.c. + saline (Table 4), p NS): -16%
Mean latency Day 1 [2, 21]: 34.4 ± 5.2 s
Mean latency Day 2 [2, 21]: 39.8 ± 4.5 s
Effect on expected decrease in latency on retest ([2]; vehicle-treated rats (Table 3)): reversed this effect
Effect on expected decrease in latency on retest ([2]; vehicle-treated rats (Table 4)): prevented this effect
Diff. between days, % ([5]; scopolamine 0.1 mg/kg s.c. + celacol days 1-6, p NS): -3%
Mean latency Day 5 [5, 22]: 33.5 ± 2.2 s
Mean latency Day 6 [5, 22]: 34.4 ± 2.5 s
Effect on expected decrease in mean latency ([5]; scopolamine 0.1 mg/kg, vehicle-treated rats): reversed by scopolamine
Mean pupil diameter ([6]; celacol p.o. + scopolamine 0.1 mg/kg s.c., ± SEM): 22.8 ± 1.65 mm × 10
Effect on pupil diameter ([6]; scopolamine, vehicle-pretreated rats, p<0.01): significantly increased pupil diameter
Effect on salivation [7]: reduced salivation
Effect on memory (scopolamine effect; given before or immediately after a learning trial): can abolish the memory

From US5866597A, “Use of triazine compounds for the treatment of memory and learning disorders” (Glaxo Wellcome Inc., priority 1993, dated 1999)
